Assay results: paper PMC3527569, “Anti-Inflammatory and Vasoprotective Activity of a Retroviral-Derived Peptide, Homologous to Human Endogenous Retroviruses: Endothelial Cell Effects” (PLoS ONE, 2012)
Where a SMILES comes first, the peptide text is derived from it. Bridges are numbered along the chain shown (N, C = ends). Roman numbers before positions name the chains, in order.

Columns and labels:
[1] = test system: HUVEC; assay: Staurosporine-induced apoptosis in HUVEC (Cell Death Detection ELISA); assay type: cell-based, human; settings: for protection against staurosporine-induced apoptosis: 50 µM peptide 3 h before staurosporine (500 nM), measured 18 h after staurosporine (Figure 11B)
Procedure: Apoptosis was measured in HUVEC using the Cell Death Detection ELISA^PLUS kit (Roche Diagnostics; Indianapolis, IN) according to the manufacturer's instructions. This assay is based on a quantitative sandwich-enzyme-immunoassay using mouse monoclonal antibodies directed against both DNA and histones, respectively. It allows the specific determination of mono- and oligonucleosomes in the cytoplasmic fraction of cell lysates (apoptosis) and in the supernatant of dying cells (necrosis). The apoptotic index (AI) was calculated as
where treatment refers to use of a known apoptosis- or necrosis-inducing agent (staurosporine, TNF-α).

[2] = test system: GM-CSF; assay: LPS-induced GM-CSF release by human PBMC (sandwich ELISA); assay type: cell-based; settings: 18-24 h, peptide 10 nM-100 µM in triplicate, IC50 estimated from graph
Procedure: (§1) Cytokine Assays: One-hundred µL of PBMC (2 x 10^6/ml in Complete Medium) were added to each well of a flat-bottom, 96-well tissue culture plate. To each well was then added 50 µL of media or peptide (4X desired final concentration; in Complete Medium) and 50 µL of lipopolysaccharide (LPS; S. typhosa; Sigma, St. Louis, MO; 400 ng/ml Complete Medium). Each peptide was tested in triplicate at 5 log10 concentrations ranging from 100 µM to 10 nM. Plates were incubate 18-24 h at 37°C in 5% humidified CO2. Plates were then centrifuged and 100 µL of supernatant removed from each well and stored frozen at -80°C until assayed. Cytokines (TNF-α, IL-1β, IL-6, GM-CSF) were measured by sandwich ELISA assays (R & D Systems; Minneapolis, MN) using the manufacturer’s instructions. The released cytokine concentration was determined from a standard curve using recombinant cytokine provided with each kit.

[3] = test system: PAF; assay: Zymosan-induced PAF release by adherent human PBMC; assay type: cell-based; settings: 1 h peptide then Zymosan 90 min, IC50 estimated from graph
Procedure: Platelet Activating Factor (PAF) and Leukotriene B4 (LTB4) Assays: PBMC were prepared as described above and adjusted to 3.3 x 10^6 cells/ml in RPMI-1640 medium containing 5 mg/ml HSA (Sigma, St. Louis, MO). To each well of a 48-well tissue culture plate was added 0.3 ml of cell suspension. The plate was incubated for 2 h at 37°C and 5% CO2 to allow cells to adhere. The wells were then washed 3X with HHBSS (Hank’s Balanced Salt Solution with 5 mg/ml HSA) at room temperature (RT). One-hundred seventy-five µL of HHBSS or test material in HHBSS was then added to each well and the plates incubated for 1 h at 37°C and 5% CO2. Samples were set up in quadruplicate. To each of duplicate wells for each sample was then added 175 µL of HHBSS or HHBSS containing 600 µg/ml of Zymosan (Sigma, St. Louis, MO). The plates were then incubated for 90 min at 37°C and 5% CO2. The plates were centrifuged and supernatants removed for quantitation of PAF or LTB4 according to the kit manufacturer’s (Amersham Pharmacia; Piscataway, NJ) instructions. The released PAF or LTB4 concentration was determined from a standard curve using standards provided with each kit.

[4] = test system: Platelet Aggregation; assay: Platelet aggregation; assay type: cell-based, human; settings: for IC50: human blood cells
[5] = test system: human blood monocytes; assay: [125I]-MN20054 binding/uptake by human blood monocytes; settings: 100-fold molar excess unlabeled peptide, 60 min, 37°C, PBS 0.5% BSA pH 7.5, triplicate, gamma counting (Figure 6A)
Procedure: (Perkin Elmer; Boston, MA) using the chloramine-T method. Human blood monocytes (purified by adherence to plastic; 10^6/0.2 ml in PBS with 0.5% BSA, pH 7.5 in 12×75 mm polypropylene tubes) were incubated in triplicate at 37°C for 60 min with 40 pmol [^125I]-MN20054 (∼20 Ci/mmol) in the presence or absence of a 100-fold molar excess of unlabeled peptide. Tubes were shaken gently during the incubation. The contents of each tube were layered onto a layer of 0.8 ml of 10% sucrose in polypropylene Eppendorf tubes and the tubes centrifuged for 5 min at 8,000×g to separate cell-associated from free ligand. The tubes were then snap-frozen in a dry-ice/acetone bath and the bottom of the tube containing the cell pellet cut off and then counted in a gamma-scintillation spectrophotometer. In studies to determine how much of the uptake was due to endocytosis, binding/uptake was performed as described above with the exception that half of the monocytes were pretreated for 30 min at 37°C with cytochalasin B (10 µg/ml; Sigma; St. Louis, MO).

[6] = test system: IL-1β; assay: LPS-induced IL-1β release by human PBMC (sandwich ELISA); assay type: cell-based; settings: 18-24 h, peptide 10 nM-100 µM in triplicate, IC50 estimated from graph
Procedure: as §1

[7] = test system: nitrate in HUVEC supernatants; assay: NO release (nitrate as nitrite) from HUVEC; assay type: cell-based, human; settings: 50 µM peptide
Procedure: HUVEC were grown to 80–90% confluence in 12-well tissue culture plates using defined media provided by Cambrex and supplemented with 10% FBS. Triplicate wells were incubated with either media alone or media containing 50 µM of the indicated peptide. Supernatant samples were removed from each well at 6 h and 24 h post peptide addition and assayed for NO release as measured by the presence of nitrate (converted to nitrite) using a kit supplied by Oxford Biomedical Research (Rochester Hill, MI) according to the manufacturer's instructions.

Row | Compound | protection against staurosporine-induced apoptosis [1] | effect of L-NAME pretreatment on protective effect against staurosporine-induced apoptosis ([1]; 2 mM L-NAME 5 h, then 50 µM peptide 3 h, staurosporine 500 nM ON (Figure 12)) | maximal protection against staurosporine-induced apoptosis ([1]; peptide added 3 h before staurosporine, up to 50 µM peptide, quadruplicate wells (Figure 10A, 10C)) [%] | IC50 [2] [µM] | IC50 [3] [µM] | IC50 [4] [µM] | effect on ADP- and epinephrine-induced human platelet aggregation ([4]; in vitro, data not shown) | inhibition of binding or uptake of [125I]-MN20054 by monocytes [5] [%] | IC50 [6] [µM] | nitrate release (as measured by nitrite assay) from HUVEC ([7]; 6 h or ON) | nitrate release, percent of MN10021 ([7]; 6 h and ON incubations) [%]
1 | CC(C)C[C@H](NC(=O)CNC(=O)CNC(=O)[C@H](CCC(=O)O)NC(=O)[C@H](CCCCN)NC(=O)[C@H](CC(C)C)NC(=O)[C@H](Cc1ccccc1)NC(=O)[C@H](CC(C)C)NC(=O)[C@H](CC(C)C)NC(=O)[C@H](CC(=O)O)NC(=O)[C@H](CC(C)C)NC(=O)CNC(=O)[C@H](CCCNC(=N)N)NC(=O)[C@H](CCCNC(=N)N)NC(=O)[C@H](CC(N)=O)NC(=O)[C@H](CCC(N)=O)NC(=O)[C@@H](N)CC(C)C)C(=O)N[C@@H](CSSC[C@H](NC(=O)[C@H](CC(C)C)NC(=O)CNC(=O)CNC(=O)[C@H](CCC(=O)O)NC(=O)[C@H](CCCCN)NC(=O)[C@H](CC(C)C)NC(=O)[C@H](Cc1ccccc1)NC(=O)[C@H](CC(C)C)NC(=O)[C@H](CC(C)C)NC(=O)[C@H](CC(=O)O)NC(=O)[C@H](CC(C)C)NC(=O)CNC(=O)[C@H](CCCNC(=N)N)NC(=O)[C@H](CCCNC(=N)N)NC(=O)[C@H](CC(N)=O)NC(=O)[C@H](CCC(N)=O)NC(=O)[C@@H](N)CC(C)C)C(=O)O)C(=O)O [MN10021] (I: H-LQNRRGLDLLFLKEGGLC-OH / II: H-LQNRRGLDLLFLKEGGLC-OH; disulfide I:18-II:18) | significant protection | no effect | ~60 | 8 | 12.5 | 5 | inhibit | ~65 | 17 | induced nitrate release | 
2 | H-LGGEKLFLLDGRNQLC-OH (disulfide (positions not given here)) [MN20050] | no protective effective |  |  | > 100 | > 100 | > 100 |  | < 10 | > 100 |  | ≤ 25
